These results are taken from US20230146870A1, “METHOD TO QUANTIFY AFFINITY AND SELECTIVITY OF SMALL MOLECULES FOR PROTEINS IN LIVING CELLS” (Ohio State Innovation Foundation, priority 2021, published 2023).

For assay [1], the target named is T1, native (untagged) murine PKCγ (Mus musculus, UniProt P63318). In words: FPCBA competition with probe 1, native PKCγ in HEK293 cells. It is filed as binding. More on the design: For coexpression of full-length unmodified PKC proteins with mVenus as an independent marker; expressed in transfected cells; host or cells: HEK293 (transient, pIRES-mVenus). As to conditions: read-out: Cellular Ki for native PKCγ (95% confidence interval); probe 1 400 nM, BIM1 2 μM, 2 h at 37° C.

The next assay deals with PKCα (Homo sapiens, UniProt P17252). As to conditions: radiolabeled PDBu at 4° C.; read-out: Biochemical Ki, PKCα; cited from earlier work.
For a further assay, the target named is PKCθ (Homo sapiens, UniProt Q04759). The following applies: radiolabeled PDBu at 4° C.; read-out: Biochemical Ki, PKCθ; cited from earlier work.
Another assay deals with PKCε (Homo sapiens, UniProt Q02156). As to conditions: radiolabeled PDBu at 4° C.; read-out: Biochemical Ki, PKCε; cited from earlier work.
For assay [2], the target named is T2, native (untagged) murine PKCε (Mus musculus, UniProt P16054).
T2 sequence (P16054 1-737): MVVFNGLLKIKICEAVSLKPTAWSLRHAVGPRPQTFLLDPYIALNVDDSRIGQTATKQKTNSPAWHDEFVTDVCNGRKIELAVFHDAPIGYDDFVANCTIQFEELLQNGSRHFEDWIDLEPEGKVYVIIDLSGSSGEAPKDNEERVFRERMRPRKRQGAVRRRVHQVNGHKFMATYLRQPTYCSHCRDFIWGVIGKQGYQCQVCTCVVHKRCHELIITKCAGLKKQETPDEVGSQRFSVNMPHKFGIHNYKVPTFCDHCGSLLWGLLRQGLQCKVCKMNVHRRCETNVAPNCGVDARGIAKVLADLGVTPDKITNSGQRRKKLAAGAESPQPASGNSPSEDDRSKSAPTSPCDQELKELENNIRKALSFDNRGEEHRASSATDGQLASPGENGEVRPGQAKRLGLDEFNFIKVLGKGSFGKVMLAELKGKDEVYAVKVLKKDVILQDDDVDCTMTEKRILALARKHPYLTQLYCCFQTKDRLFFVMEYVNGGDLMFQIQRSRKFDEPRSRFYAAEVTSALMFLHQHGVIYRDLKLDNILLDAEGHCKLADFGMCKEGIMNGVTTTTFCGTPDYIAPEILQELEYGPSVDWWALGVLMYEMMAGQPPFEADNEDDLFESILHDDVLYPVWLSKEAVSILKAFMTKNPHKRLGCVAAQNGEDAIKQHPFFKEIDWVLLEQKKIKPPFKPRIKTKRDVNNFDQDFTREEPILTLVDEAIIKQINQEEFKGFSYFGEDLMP
As to the kind of experiment: FPCBA competition with probe 1, native PKCε in HEK293 cells. It is filed as binding. Also on record: For coexpression of full-length unmodified PKC proteins with mVenus as an independent marker; expressed in transfected cells; host or cells: HEK293 (transient, pIRES-mVenus). The following applies: read-out: Cellular Ki for native PKCε (95% confidence interval); probe 1 400 nM, BIM1 2 μM, 2 h at 37° C.

The target of another assay is PKCβI (Homo sapiens, UniProt P05771). As to conditions: radiolabeled PDBu at 4° C.; read-out: Biochemical Ki, PKCβI; cited from earlier work.
For a further assay, the target named is T3, murine PKCβI-mVenus (Mus musculus, UniProt P68404).
T3 construct: fused on or other part: mVenus at the C-terminus
In words: FPCBA saturation binding, HEK293 cells expressing PKCβI-mVenus (Example 3). The text has this: To investigate the potential for quantitative analysis of binding to PKCs expressed in cells, we evaluated whether 1-3 could readily achieve equilibrium, which is necessary for measurements of cellular equilibrium dissociation constants (Kd).

For assay [3], the target named is T1, native (untagged) murine PKCγ. As to the kind of experiment: FPCBA saturation binding of probe 1, native PKCγ (IRES-mVenus) in HEK293 cells.
Assay [4] concerns the target native (untagged) murine PKCα (Mus musculus, UniProt P20444). As to the kind of experiment: FPCBA saturation binding of probe 1, native PKCα (IRES-mVenus) in HEK293 cells.
A further assay addresses murine PKCδ-mVenus (Mus musculus, UniProt P28867). As to the kind of experiment: FPCBA saturation binding of probe 1, HEK293 cells expressing PKCδ-mVenus (Example 3).
For a further assay, the target named is murine PKCη-mVenus (Mus musculus, UniProt P23298). As to the kind of experiment: FPCBA saturation binding of probe 1, HEK293 cells expressing PKCη-mVenus (Example 3).
The target of assay [5] is native (untagged) murine PKCθ (Mus musculus, UniProt Q02111). In words: FPCBA saturation binding of probe 1, native PKCθ (IRES-mVenus) in HEK293 cells.

SMILES strings stand for the structures.

T3 sequence (P68404 2-621 limits assumed): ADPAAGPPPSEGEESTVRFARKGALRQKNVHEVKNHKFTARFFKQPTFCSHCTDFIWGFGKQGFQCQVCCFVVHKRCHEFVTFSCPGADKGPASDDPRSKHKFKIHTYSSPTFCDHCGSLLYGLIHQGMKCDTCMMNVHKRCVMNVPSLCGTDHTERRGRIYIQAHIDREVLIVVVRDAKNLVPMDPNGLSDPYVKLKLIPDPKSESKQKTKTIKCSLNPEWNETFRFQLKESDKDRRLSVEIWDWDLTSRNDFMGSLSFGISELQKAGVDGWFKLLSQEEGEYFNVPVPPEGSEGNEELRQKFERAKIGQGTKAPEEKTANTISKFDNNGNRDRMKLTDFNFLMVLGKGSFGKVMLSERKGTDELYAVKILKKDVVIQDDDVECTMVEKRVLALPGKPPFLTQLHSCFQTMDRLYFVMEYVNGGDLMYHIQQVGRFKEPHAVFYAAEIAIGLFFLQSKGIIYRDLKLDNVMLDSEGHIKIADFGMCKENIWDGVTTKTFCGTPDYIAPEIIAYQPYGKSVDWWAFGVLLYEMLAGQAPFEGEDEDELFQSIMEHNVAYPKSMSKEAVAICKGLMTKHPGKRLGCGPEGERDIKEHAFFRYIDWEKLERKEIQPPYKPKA
Chain of murine PKCδ-mVenus (P28867 whole entry): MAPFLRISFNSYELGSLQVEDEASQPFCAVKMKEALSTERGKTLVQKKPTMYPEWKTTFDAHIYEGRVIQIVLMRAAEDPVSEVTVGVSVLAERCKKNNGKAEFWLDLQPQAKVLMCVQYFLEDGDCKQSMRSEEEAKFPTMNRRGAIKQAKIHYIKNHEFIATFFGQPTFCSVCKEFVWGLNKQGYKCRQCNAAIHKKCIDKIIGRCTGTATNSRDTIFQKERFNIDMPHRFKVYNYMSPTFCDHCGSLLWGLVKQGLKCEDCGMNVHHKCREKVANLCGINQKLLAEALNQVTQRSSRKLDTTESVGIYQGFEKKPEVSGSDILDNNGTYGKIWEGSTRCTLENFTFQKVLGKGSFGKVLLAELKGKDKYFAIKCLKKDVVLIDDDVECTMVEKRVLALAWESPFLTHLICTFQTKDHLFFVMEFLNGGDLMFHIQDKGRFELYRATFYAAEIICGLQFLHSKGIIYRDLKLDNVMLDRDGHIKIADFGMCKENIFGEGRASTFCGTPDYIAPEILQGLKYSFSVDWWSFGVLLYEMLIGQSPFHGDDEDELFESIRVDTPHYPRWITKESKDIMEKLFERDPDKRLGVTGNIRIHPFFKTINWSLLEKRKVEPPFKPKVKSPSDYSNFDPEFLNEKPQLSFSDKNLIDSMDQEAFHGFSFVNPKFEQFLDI
Chain of murine PKCη-mVenus (P23298 whole entry): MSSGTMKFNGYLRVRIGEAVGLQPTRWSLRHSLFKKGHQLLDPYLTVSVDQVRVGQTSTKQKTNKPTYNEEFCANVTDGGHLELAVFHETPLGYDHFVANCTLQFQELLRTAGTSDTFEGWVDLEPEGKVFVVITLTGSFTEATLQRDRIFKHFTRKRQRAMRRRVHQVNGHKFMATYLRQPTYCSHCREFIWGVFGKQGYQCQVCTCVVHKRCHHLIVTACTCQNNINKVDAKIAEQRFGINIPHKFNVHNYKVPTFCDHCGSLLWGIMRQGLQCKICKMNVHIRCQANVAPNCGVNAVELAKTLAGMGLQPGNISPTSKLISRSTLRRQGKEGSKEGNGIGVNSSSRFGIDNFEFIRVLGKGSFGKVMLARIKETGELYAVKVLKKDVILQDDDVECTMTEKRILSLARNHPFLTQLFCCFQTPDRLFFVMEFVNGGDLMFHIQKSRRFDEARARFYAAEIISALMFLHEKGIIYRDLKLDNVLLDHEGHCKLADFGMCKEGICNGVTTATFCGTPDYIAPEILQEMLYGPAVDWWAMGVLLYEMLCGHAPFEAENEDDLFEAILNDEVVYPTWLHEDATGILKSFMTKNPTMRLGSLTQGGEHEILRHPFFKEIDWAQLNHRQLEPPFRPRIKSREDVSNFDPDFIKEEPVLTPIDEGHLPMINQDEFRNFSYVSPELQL
Chain of PKCθ (Q04759 whole entry): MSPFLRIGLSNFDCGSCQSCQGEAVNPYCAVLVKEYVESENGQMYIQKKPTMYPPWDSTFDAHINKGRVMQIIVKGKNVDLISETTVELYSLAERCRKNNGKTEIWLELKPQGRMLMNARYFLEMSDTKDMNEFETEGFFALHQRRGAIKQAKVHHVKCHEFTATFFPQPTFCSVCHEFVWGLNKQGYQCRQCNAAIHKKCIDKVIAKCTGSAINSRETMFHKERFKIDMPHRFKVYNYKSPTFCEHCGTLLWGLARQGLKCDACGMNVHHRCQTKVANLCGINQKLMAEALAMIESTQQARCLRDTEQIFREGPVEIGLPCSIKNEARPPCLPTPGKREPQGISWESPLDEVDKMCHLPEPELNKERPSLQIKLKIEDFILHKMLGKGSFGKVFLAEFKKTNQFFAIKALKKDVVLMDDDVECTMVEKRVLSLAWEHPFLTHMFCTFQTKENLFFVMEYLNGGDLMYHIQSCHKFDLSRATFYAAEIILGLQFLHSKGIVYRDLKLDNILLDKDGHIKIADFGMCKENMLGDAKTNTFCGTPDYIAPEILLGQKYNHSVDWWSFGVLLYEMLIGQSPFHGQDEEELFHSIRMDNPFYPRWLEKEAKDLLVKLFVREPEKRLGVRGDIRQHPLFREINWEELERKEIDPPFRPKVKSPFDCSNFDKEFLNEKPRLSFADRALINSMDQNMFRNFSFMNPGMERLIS

For `CCC/C=C/C=C/C(=O)O[C@H]1/C(=C/C(=O)OC)C[C@H]2C[C@H]([C@@H](C)O)OC(=O)C[C@H](O)C[C@@H]3C[C@H](OC(C)=O)C(C)(C)[C@](O)(C[C@@H]4C/C(=C/C(=O)OC)C[C@H](/C=C/C(C)(C)[C@]1(O)O2)O4)O3` [bryostatin 1], the inhibition constant Ki in assay [1] was 8 nM; on PKCα, 0.81 nM; at PKCθ it was 1.5 nM; on PKCε it was 3 nM; in assay [2], 16 nM; on PKCβI, 2.2 nM.
`CCCCCCN(CCCCCCCCCCCCNC(=O)c1cc2cc(F)c(O)c(F)c2oc1=O)C(=O)O[C@@]12[C@H](O)[C@@H](C)[C@@]3(O)[C@@H](C=C(CO)C[C@]4(O)C(=O)C(C)=C[C@@H]34)[C@@H]1C2(C)C` [probe 1, (1aR,1bS,4aR,7aS,7bS,8R,9R,9aS)-4a,7b,9-trihydroxy-3-(hydroxymethyl)-1,1,6,8-tetramethyl-5-oxo-1,1a,1b,4,4a,5,7a,7b,8,9-decahydro-9aH-cyclopropa[3,4]benzo[1,2-e]azulen-9a-yl (12-(6,8-difluoro-7-hydroxy-2-oxo-2H-chromene-3-carboxamido)dodecyl)(hexyl)carbamate]: the “median blue fluorescence of cells expressing high levels of PKCβI-mVenus vs non-transfected cells” value on murine PKCβI-mVenus (1 at 1 μM, 2 h, BIM1 2 μM) is reported as “ca. 4 fold”. In addition, the Kd is 200 nM at murine PKCβI-mVenus (BIM1 2 μM, 2 h at 37° C., 4% FBS, read-out: Cellular Kd for probe, PKCβI-mVenus); 211 ± 92 nM in assay [3]; 63 nM in assay [4]; 657 ± 254 nM at murine PKCδ-mVenus; 250 ± 36 nM on murine PKCη-mVenus; 1050 ± 125 nM in assay [5]. At murine PKCβI-mVenus (with BIM1, 1.25 μM probe), the “signal-to-background (S/B)” value was 2.9. The “improvement of apparent cellular affinity for PKCβI by BIM1” value on murine PKCβI-mVenus (with vs without BIM1) is recorded as approximately 2 fold.

The Ki is the dissociation constant of the complex between target and ligand, obtained from inhibition or displacement. The term Kd denotes the free concentration of one partner at which half of the binding sites on the other are occupied at equilibrium, for simple one-to-one binding.
